# Results from paper PMC5897044 (Cell host & microbe, 2017).
# Bridge positions count the residues as written; N and C are the ends. Peptide text beside a SMILES is read from it.
# Tested on: PMN infiltration in skin
# Conditions: mouse, in vivo
smiles,measurement,value
C[C@@H](O)[C@H](NC(=O)[C@H](CO)NC(=O)[C@@H](N)Cc1ccc(O)cc1)C(=O)N[C@H]1CSC(=O)[C@H](Cc2ccccc2)NC(=O)[C@H](Cc2ccc(O)cc2)NC(=O)[C@H](Cc2ccc(O)cc2)NC(=O)[C@H](CO)NC1=O [S. caprae AIP] (H-YSTCSYYF; thioester 4-C),"magnitude of PMN infiltration by sterile injection, AIP vs vehicle",equivalent
